Experimental findings from ChEMBL document CHEMBL3856276, “Design, Synthesis, and Biological Evaluation of Novel Tetrahydroprotoberberine Derivatives (THPBs) as Selective α1A-Adrenoceptor Antagonists” (J Med Chem, 2016) are described below.

Molecules are shown by their SMILES. Where only a bound is given, the exact number is not on record here.

Assay [1] has as its target T1, Alpha-1A adrenergic receptor (Homo sapiens) (UniProt P35348).
T1 sequence (whole entry): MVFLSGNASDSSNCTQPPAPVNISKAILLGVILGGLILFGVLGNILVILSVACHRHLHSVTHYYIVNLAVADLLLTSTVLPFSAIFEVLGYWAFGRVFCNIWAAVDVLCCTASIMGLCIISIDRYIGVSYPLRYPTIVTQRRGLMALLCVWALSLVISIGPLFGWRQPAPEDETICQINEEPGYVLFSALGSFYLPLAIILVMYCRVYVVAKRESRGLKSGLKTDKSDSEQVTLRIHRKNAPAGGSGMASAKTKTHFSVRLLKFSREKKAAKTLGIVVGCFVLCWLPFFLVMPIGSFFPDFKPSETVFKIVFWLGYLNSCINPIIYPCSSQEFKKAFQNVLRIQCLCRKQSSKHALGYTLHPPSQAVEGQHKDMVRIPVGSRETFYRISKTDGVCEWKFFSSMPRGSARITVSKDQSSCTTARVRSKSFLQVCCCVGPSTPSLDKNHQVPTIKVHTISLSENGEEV
Put plainly: Antagonist activity at human full-length N-terminal SNAP-tagged alpha1A adrenoceptor expressed in HEK293 cells assessed as inhibition of agonist-induced calcium mobilization at 10 uM preincubated for 10 mins followed by agonist addition by fluo-4 AM dye-based assay relative to control. It counts as functional, cell-based.

The species entered for assay [2] is Homo sapiens. In words: Selectivity ratio of IC50 for human full-length N-terminal SNAP-tagged alpha1B adrenoceptor to IC50 for human full-length N-terminal SNAP-tagged alpha1A adrenoceptor.
The species named for assay [3] is Homo sapiens. In words: Selectivity ratio of IC50 for human full-length N-terminal SNAP-tagged alpha1D adrenoceptor to IC50 for human full-length N-terminal SNAP-tagged alpha1A adrenoceptor.
The target of assay [4] is T2, Alpha-1A adrenergic receptor (Homo sapiens, UniProt P35348).
T2 sequence (P35348 whole entry): T1 sequence (whole entry)
Description: Antagonist activity at human full-length N-terminal SNAP-tagged alpha1A adrenoceptor expressed in HEK293 cells assessed as inhibition of agonist-induced calcium mobilization preincubated for 10 mins followed by agonist addition by fluo-4 AM dye-based assay

Assay [5] deals with T3, Alpha-1B adrenergic receptor (Homo sapiens, UniProt P35368).
T3 sequence (P35368 whole entry): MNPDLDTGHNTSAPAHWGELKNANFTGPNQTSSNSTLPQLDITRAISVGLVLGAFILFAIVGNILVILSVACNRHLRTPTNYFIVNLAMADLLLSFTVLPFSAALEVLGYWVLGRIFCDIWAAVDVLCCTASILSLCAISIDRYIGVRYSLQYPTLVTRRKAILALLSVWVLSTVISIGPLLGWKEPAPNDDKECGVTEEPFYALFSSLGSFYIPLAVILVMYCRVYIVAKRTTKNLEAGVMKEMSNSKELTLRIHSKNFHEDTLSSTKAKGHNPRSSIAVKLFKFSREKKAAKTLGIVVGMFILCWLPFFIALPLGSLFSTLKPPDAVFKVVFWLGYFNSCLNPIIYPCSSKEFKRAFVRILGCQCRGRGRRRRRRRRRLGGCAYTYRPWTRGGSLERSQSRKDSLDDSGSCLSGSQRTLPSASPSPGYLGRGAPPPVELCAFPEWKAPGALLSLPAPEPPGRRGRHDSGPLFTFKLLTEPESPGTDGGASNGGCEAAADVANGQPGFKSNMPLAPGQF
Description: Antagonist activity at human full-length N-terminal SNAP-tagged alpha1B adrenoceptor expressed in HEK293 cells assessed as inhibition of agonist-induced calcium mobilization preincubated for 10 mins followed by agonist addition by fluo-4 AM dye-based assay

Assay [6] has as its target T4, Alpha-1D adrenergic receptor (Homo sapiens, UniProt P25100).
T4 sequence (P25100 whole entry): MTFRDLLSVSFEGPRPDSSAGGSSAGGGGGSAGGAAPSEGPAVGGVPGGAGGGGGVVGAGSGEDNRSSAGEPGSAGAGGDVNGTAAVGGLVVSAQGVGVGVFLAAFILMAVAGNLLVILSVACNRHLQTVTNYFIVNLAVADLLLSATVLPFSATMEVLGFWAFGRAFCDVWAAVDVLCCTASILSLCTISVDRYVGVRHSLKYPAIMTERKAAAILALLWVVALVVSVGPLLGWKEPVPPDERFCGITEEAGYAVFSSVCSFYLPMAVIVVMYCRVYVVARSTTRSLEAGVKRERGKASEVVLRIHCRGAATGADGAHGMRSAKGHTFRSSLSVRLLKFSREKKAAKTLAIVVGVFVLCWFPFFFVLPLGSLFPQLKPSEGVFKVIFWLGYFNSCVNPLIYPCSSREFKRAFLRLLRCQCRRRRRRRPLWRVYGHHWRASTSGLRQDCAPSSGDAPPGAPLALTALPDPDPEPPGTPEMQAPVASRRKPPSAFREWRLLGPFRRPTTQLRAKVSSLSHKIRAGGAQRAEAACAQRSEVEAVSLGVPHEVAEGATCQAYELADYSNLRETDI
Description: Antagonist activity at human full-length N-terminal SNAP-tagged alpha1D adrenoceptor expressed in HEK293 cells assessed as inhibition of agonist-induced calcium mobilization preincubated for 10 mins followed by agonist addition by fluo-4 AM dye-based assay

For assay [7], the target named is T5, Alpha-1A adrenergic receptor (Rattus norvegicus, UniProt P43140).
T5 sequence (P43140 whole entry): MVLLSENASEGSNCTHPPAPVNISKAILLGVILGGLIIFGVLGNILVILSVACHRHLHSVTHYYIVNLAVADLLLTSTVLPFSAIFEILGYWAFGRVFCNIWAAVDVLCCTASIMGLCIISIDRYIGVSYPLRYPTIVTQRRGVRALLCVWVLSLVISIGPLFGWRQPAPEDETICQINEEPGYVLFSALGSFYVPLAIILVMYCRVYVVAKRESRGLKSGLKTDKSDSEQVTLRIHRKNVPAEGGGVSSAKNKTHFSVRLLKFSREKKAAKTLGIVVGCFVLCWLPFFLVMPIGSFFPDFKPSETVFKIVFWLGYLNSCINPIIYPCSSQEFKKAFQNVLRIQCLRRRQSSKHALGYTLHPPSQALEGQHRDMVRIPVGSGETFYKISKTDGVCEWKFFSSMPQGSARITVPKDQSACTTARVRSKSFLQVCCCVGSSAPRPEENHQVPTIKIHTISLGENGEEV
Put plainly: Displacement of [125I]-BE2254 from Wistar rat alpha1A adrenoceptor after 20 mins.

Broadly, the inhibition is the relative decrease from the control value, in per cent. For orientation: IC50 means the concentration needed to halve the response being measured. For orientation: Ki means a dissociation constant, usually derived from enzyme kinetics or from competition with a known ligand. Low readings indicate higher affinity, high ones lower affinity.

Turning to `c1ccc2c3c([nH]c2c1)CN1CCc2cc4c(cc2C1C3)OCO4` (configuration not stated), the inhibition in assay [1] came out at 100%. The Ratio IC50 in the assay filed under Homo sapiens [2] and in the assay listed under Homo sapiens [3] was greater than 80 each time. Also, the IC50 is 125 nM in assay [4], greater than 10000 nM in assay [5] and greater than 10000 nM in assay [6].

Consider `COc1ccc2c(c1OC)CN1CCc3cc4c(cc3C1C2)OCO4` (configuration not stated) [TETRAHYDROBERBERINE], for which, in assay [7], the affinity corresponds to a Ki of 1120 nM.

In turn, `COc1cc2cc[n+]3c(c2cc1OC)Cc1ccc(OC)c(OC)c1C3` came in with an IC50 in assay [4] of 7600 nM.

On to `COc1ccc(C2c3[nH]c4ccccc4c3CC3c4cc(OC)c(OC)cc4CCN32)cc1` (configuration not stated), for which the inhibition in assay [1] is 21%.

For `COc1cccc2[nH]c3c(c12)CC1c2cc4c(cc2CCN1C3)OCO4` (configuration not stated), the inhibition in assay [1] stood at 100%. The Ratio IC50 in the assay filed under Homo sapiens [2] and in the assay filed under Homo sapiens [3] was greater than 19.4 throughout. Further, the figures for the IC50 in assay [4], in assay [5] and in assay [6] were 202 nM, greater than 10000 nM and greater than 10000 nM, respectively.

Turning to `COc1cc2c(cc1OC)C1Cc3c([nH]c4ccccc34)C(CC(C)C)N1CC2` (configuration not stated), in assay [1], the inhibition was found to be 72%.

In assay [7], `COc1cc2c(cc1O)[C@@H]1Cc3c(Cl)cc(OC)c(O)c3CN1CC2` had a Ki of 1380 nM.

In the case of `COc1cc2c(cc1OC)[C@@H]1Cc3ccc(OC)c(OC)c3CN1CC2`, in assay [1], the inhibition was found to be 41.2%.

For the compound `c1c2c(cc3c1OCO3)CN1CCc3cc4c(cc3C1C2)OCO4` (configuration not stated), the IC50 in assay [4] is 462 nM.

Consider `COc1ccc(C2c3[nH]c4ccccc4c3CC3c4cc5c(cc4CCN32)OCO5)cc1` (configuration not stated), for which the inhibition in assay [1] stood at 0%.

On to `COc1cc2c(cc1OC)C1Cc3c([nH]c4ccccc34)C(c3ccccc3)N1CC2` (configuration not stated), for which the inhibition in assay [1] was 0%.

As for `CCCCOc1cc2c(cc1OC)C1Cc3c([nH]c4ccc(OC)cc34)CN1CC2` (configuration not stated), the inhibition in assay [1] was 63%.

As for `CCCCOc1cc2c(cc1OC)CCN1Cc3[nH]c4ccc(OC)cc4c3CC21` (configuration not stated), in assay [1], the inhibition was determined as 98%. The IC50 in assay [4] stood at 2290 nM.

Turning to `CCOc1ccccc1OCCN[C@H](C)Cc1ccc(OC)c(S(N)(=O)=O)c1` [TAMSULOSIN], the inhibition in assay [1] amounted to 100%. Besides, the IC50 was 4.8 nM in assay [5] and 1.4 nM in assay [6].

Take `COc1ccc2c(c1OC)CN1CCc3cc4c(cc3[C@@H]1C2)OCO4` [CANADINE]: the IC50 in assay [4] was 5400 nM.

`CCOc1cc2c(cc1OC)CCN1Cc3[nH]c4ccc(OC)cc4c3CC21` (configuration not stated): the inhibition in assay [1] amounted to 75%.

Turning to `CCCOc1cc2c(cc1OC)CCN1Cc3[nH]c4ccc(OC)cc4c3CC21` (configuration not stated), the inhibition in assay [1] was 100%. The Ratio IC50 in the assay listed under Homo sapiens [2] and in the assay filed under Homo sapiens [3] was greater than 44.4 each time. For the same compound, the IC50 in assay [4] is 225 nM; in assay [5], greater than 10000 nM; in assay [6], greater than 10000 nM.

For `CCOc1cc2c(cc1OC)C1Cc3c([nH]c4ccc(OC)cc34)CN1CC2` (configuration not stated), in assay [1], the inhibition came out at 17%.

`Fc1ccc2[nH]c3c(c2c1)CC1c2cc4c(cc2CCN1C3)OCO4` (configuration not stated): the inhibition in assay [1] was 100%. Moreover, the Ratio IC50 in the assay listed under Homo sapiens [2] was greater than 39.4; in the assay filed under Homo sapiens [3], 33.1. Further, the IC50 in assay [4] is 254 nM; in assay [5] it was greater than 10000 nM; in assay [6] it was 8390 nM.

For the compound `COc1ccc2c3c([nH]c2c1)CN1CCc2cc4c(cc2C1C3)OCO4` (configuration not stated), in assay [1], the inhibition worked out at 100%. Further, the Ratio IC50 in the assay listed under Homo sapiens [2] and in the assay listed under Homo sapiens [3] was greater than 16.8 each time. In addition, the IC50 is 594 nM in assay [4], greater than 10000 nM in assay [5] and greater than 10000 nM in assay [6].

In the case of `COc1ccc2c(c1)CCN1C2Cc2c([nH]c3ccccc23)C1C1CC1` (configuration not stated), in assay [1], the inhibition is 31%.

Regarding `COc1ccc2c(c1)CCN1Cc3[nH]c4ccccc4c3CC21` (configuration not stated), in assay [1], the inhibition is 100%. In addition, it took 552 nM to reach half-maximal inhibition in assay [4] (IC50).

On to `COc1ccc(C2c3[nH]c4ccccc4c3CC3c4ccc(OC)cc4CCN32)cc1` (configuration not stated), for which, in assay [1], the inhibition stood at 80%. In assay [4], the IC50 was greater than 10000 nM.

`COc1ccc2[nH]c3c(c2c1)CC1c2cc(O)c(OC)cc2CCN1C3` (configuration not stated): the inhibition in assay [1] amounted to 56%.

Regarding `COc1cc2c(cc1OC)C1Cc3c([nH]c4ccccc34)CN1CC2` (configuration not stated), the inhibition in assay [1] came out at 60%.

On to `CC(C)CC1c2[nH]c3ccccc3c2CC2c3cc4c(cc3CCN21)OCO4` (configuration not stated), for which, in assay [1], the inhibition worked out at 0%.

On to `COc1cc2c(cc1O)[C@@H]1Cc3ccc(O)c(OC)c3CN1CC2` [STEPHOLIDINE], for which affinity in assay [7] was put at a Ki of 2240 nM.

Turning to `CCCOc1cc2c(cc1OC)C1Cc3c([nH]c4ccc(OC)cc34)CN1CC2` (configuration not stated), the inhibition in assay [1] was 21%.

As to `Fc1ccc2c3c([nH]c2c1)CN1CCc2cc4c(cc2C1C3)OCO4` (configuration not stated), in assay [1], the inhibition came out at 100%. In addition, the IC50 in assay [4] amounted to 2060 nM.

For `COc1ccc2[nH]c3c(c2c1)CC1c2cc(OC)c(O)cc2CCN1C3` (configuration not stated), in assay [1], the inhibition was 0%.

As to `Fc1ccc(C2c3[nH]c4ccccc4c3CC3c4cc5c(cc4CCN32)OCO5)cc1` (configuration not stated), the inhibition in assay [1] stood at 0%.

Regarding `COc1ccc2c(c1)CCN1C(C)c3[nH]c4ccccc4c3CC21` (configuration not stated), the inhibition in assay [1] amounted to 90%. In assay [4], this compound yielded an IC50 of 8670 nM.

For `c1ccc2c3c([nH]c2c1)CN1CCc2cc4c(cc2[C@@H]1C3)OCO4`, the inhibition in assay [1] amounted to 99%. Further, the Ratio IC50 in the assay filed under Homo sapiens [2] and in the assay filed under Homo sapiens [3] was greater than 174 throughout. Also, the IC50 is 57.4 nM in assay [4], greater than 10000 nM in assay [5] and greater than 10000 nM in assay [6].

As to `COc1cc2c(cc1OC)C1Cc3c([nH]c4ccccc34)C(c3ccc(F)cc3)N1CC2` (configuration not stated), the inhibition in assay [1] is 0%.

On to `COc1ccc2[nH]c3c(c2c1)C[C@@H]1c2cc4c(cc2CCN1C3)OCO4`, for which the inhibition in assay [1] stood at 100%. For the same compound, in assay [4], 3190 nM corresponded to half-maximal inhibition (IC50).

As to `c1ccc(COc2ccc3[nH]c4c(c3c2)CC2c3cc5c(cc3CCN2C4)OCO5)cc1` (configuration not stated), the inhibition in assay [1] was 100%. The compound also came in with an IC50 in assay [4] of 2880 nM.

For `CCC1c2[nH]c3ccccc3c2CC2c3cc4c(cc3CCN21)OCO4` (configuration not stated), the inhibition in assay [1] worked out at 82%. Also, the IC50 in assay [4] was greater than 10000 nM.
